Laboratory results published in paper PMC12146700 (Proceedings of the National Academy of Sciences of the …, 2025).
Residue numbers refer to the chain shown, from its start.

Tests used:
[1] = target: T1, human ATP8B1 (full-length, N-terminal GST-tagged) (Homo sapiens, UniProt O43520); test: ATPase activity stimulated by phospholipid; assay type: biochemical; conditions: activation of ATPase activity; acyl chains not told
T1 sequence (O43520 1-1251): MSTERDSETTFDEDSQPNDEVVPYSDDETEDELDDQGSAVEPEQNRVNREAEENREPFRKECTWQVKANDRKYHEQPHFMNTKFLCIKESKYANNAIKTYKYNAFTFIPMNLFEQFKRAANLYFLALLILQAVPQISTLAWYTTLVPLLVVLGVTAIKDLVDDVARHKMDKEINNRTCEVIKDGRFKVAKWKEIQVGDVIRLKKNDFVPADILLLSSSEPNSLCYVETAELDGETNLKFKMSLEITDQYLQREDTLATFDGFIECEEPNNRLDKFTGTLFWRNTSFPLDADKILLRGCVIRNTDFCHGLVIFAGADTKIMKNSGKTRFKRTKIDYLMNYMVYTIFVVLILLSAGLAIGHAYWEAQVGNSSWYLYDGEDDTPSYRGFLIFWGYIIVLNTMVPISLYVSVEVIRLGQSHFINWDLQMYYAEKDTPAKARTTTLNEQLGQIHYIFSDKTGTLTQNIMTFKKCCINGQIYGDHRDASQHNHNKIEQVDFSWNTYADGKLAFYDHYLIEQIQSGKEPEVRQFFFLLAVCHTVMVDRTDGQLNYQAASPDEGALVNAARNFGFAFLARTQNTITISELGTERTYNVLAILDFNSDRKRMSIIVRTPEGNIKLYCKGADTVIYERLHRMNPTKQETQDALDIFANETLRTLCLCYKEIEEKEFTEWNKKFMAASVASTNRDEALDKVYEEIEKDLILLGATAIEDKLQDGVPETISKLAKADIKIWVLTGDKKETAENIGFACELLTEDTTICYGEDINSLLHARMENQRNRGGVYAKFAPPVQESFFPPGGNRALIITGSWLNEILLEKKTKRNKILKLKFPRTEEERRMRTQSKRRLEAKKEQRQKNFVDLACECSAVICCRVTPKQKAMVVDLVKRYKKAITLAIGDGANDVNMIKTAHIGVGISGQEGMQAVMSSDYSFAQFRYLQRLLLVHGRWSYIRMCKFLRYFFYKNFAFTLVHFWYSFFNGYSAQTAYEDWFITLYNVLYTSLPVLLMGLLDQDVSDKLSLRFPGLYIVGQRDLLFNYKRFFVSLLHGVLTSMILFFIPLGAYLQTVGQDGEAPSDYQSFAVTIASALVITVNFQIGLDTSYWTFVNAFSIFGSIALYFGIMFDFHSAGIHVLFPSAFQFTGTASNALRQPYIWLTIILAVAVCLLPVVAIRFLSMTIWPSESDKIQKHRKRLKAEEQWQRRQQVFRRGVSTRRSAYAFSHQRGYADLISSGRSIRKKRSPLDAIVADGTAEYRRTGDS

[2] = target: T2, WT ATP8B1 fragment (residues 803 to 880) (Homo sapiens, UniProt O43520); test: surface plasmon resonance, protein covalently coupled on CM5 chip; assay type: binding; conditions: PIP2 injected at different concentrations; acyl chains not told
T2 sequence (O43520 803-880): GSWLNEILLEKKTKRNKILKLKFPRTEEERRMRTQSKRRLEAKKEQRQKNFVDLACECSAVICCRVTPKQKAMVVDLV

[3] = target: T3, WT ATP8B1 fragment (residues 803 to 880) (Homo sapiens, UniProt O43520, K824A/R832A/R833A/R835A); test: as above; assay type: binding; conditions: PIP2 injected at different concentrations; acyl chains not told
T3 sequence (O43520 803-880 K824A/R832A/R833A/R835A): T2 sequence (O43520 803-880) with K22A, R30A, R31A, R33A

EC50 [1]: 232 ± 35.2 µM | Kd [2]: ~11.5 µM | Kd [3]: ~63.6 µM
Substance: PIP2
